According to patent US20240270701A1, “BETA ADRENERGIC AGONIST AND METHODS OF USING THE SAME” (Curasen Therapeutics, Inc., priority 2021, published 2024):
Read-outs that look alike come from different tables or passages of the source.

How the values were obtained:
B1-AR = target: T1, B1-AR (Homo sapiens, UniProt P08588); experiment: cAMP Gs dynamic HTRF assay, cells expressing beta-adrenergic receptor (CHO-K1), B1-AR; assay type: cell-based; conditions: for EC50: cAMP HTRF, read-out: pEC50 [B1-AR] (converted); for Emax: relative to full agonist isoproterenol, read-out: Emax (% iso) (%) [B1-AR]
T1 construct: expressed in transfected cells; host or cells: CHO-K1
Method: (§1) cAMP homogeneous time-resolved fluorescence (HTRF): experimental methods. Compound efficacy is determined using the cAMP Gs dynamic HTRF assay (Cisbio, catalog #62AM4PEC) largely following the manufacturer's instructions, also detailed below.
(§2) Standard serial dilution curves are 10-point, 5-fold dilutions starting from a highest concentration of 10 μM. Controls present on every assay plate are 0.1% DMSO (vehicle control), 1 μM isoproterenol (full beta-adrenergic agonist control) and […] xamoterol (partial beta-adrenergic agonist control). […] Assay plates are centrifuged at 500×g for 10 seconds. Compounds and IBMX are prepared at 2× final dose to compensate for addition of cells.
(§3) Cell preparation: 1× stimulation buffer, washing PBS (Dulbecco's phosphate-buffered saline, − Mg − Ca; Caisson Labs, catalog #PBL01), assay PBS (Dulbecco's phosphate-buffered saline, + Mg, + Ca; Caisson Labs, catalog #PBL02) and Versene (0.02% EDTA disodium salt solution in PBS without calcium or magnesium; Caisson Labs, catalog #EDL01) are pre-warmed to 37° C. Cells expressing beta-adrenergic receptor were washed in washing PBS to remove growth medium and then released from the surface by incubating with Versene for 5-10 minutes at 37° C. Cells are harvested using assay PBS, counted manually by hemocytometer or by an automated cell counter, pelleted by centrifugation (200×g, 5 minutes) and resuspended in 37° C. 1× stimulation buffer to a final density of 1.5×10^6 cells/mL. 5 μL of the suspended cell solution (7500 cell total) are added to all wells of the 384 well assay plate, the assay plate was covered with an Axygen® plate seal (Corning PCR-SP) and incubated in a humidified 37° C. environment supplemented with 5% CO2 for 30 minutes.
(§4) HTRF reagent addition, reading and data analysis: After 30 minutes of cell stimulation with test compound, the assay plates are centrifuged at 500×g for 10 seconds, and incubation was stopped with the addition of 5 μL cAMP-D2 acceptor, diluted 1:21 in detection and lysis buffer 2 (Cisbio 62CL2FDF) was added to all cells. Subsequently, 5 μL Anti-cAMP-Eu Donor, diluted 1:21 in detection and lysis buffer 2, was added to cells. Plates were sealed and reactions gently ‘vortexed’ at 900 rpm on a Heidolph Titramax 1000 for at least 30 minutes at room temperature. Plates are centrifuged again at 500×g for 10 seconds, and HTRF was measured using a Tecan Spark plate reader at 50 flashes per well. […] Potency estimates (EC50 and pEC50) are derived from the four-parameter nonlinear regression of the concentration-effect curve and an estimate of relative efficacy is determined by comparing the magnitude of the test compound HTRF signal window (min−max dose) with the signal window of the full agonist control, isoproterenol.

B2-AR = target: T2, B2-AR (Homo sapiens, UniProt P07550); experiment: cAMP Gs dynamic HTRF assay, cells expressing beta-adrenergic receptor (CHO-K1), B2-AR; assay type: cell-based; conditions: for Emax: relative to full agonist isoproterenol, read-out: Emax (% iso) (%) [B2-AR]; for EC50: cAMP HTRF, read-out: pEC50 [B2-AR] (converted)
T2 construct: expressed in transfected cells; host or cells: CHO-K1
Method: as §1, §2, §3, §4

T2 sequence (P07550 whole entry, species assumed): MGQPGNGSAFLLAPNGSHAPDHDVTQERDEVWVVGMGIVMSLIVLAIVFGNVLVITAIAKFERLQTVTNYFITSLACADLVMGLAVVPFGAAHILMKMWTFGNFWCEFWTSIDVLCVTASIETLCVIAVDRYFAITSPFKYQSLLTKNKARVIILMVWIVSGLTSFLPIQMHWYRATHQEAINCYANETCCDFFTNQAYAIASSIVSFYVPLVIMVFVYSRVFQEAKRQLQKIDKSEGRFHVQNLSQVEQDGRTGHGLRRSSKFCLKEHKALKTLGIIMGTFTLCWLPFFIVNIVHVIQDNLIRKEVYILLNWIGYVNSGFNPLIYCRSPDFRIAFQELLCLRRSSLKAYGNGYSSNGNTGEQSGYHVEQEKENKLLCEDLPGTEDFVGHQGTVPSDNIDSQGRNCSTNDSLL
T1 sequence (P08588 whole entry, species assumed): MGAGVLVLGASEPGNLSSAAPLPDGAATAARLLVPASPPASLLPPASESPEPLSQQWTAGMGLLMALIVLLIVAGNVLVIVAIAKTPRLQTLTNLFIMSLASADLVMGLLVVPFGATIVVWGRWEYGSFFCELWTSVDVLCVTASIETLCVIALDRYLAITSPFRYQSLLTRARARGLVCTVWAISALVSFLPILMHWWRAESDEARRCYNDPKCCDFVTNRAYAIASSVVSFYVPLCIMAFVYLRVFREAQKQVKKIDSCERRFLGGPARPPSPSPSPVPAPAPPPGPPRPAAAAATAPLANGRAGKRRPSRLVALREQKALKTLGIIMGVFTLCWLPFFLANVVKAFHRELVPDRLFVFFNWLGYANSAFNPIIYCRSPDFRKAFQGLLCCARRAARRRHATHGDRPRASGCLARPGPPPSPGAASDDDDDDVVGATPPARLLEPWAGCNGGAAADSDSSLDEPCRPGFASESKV

| Emax (B2-AR; CHO-K1 cells) [%] | SMILES | EC50 (B1-AR) [nM] | Emax (B1-AR) [%] | Emax (B2-AR; CHO-K1, CHO-K1 cells) [%] | EC50 (B2-AR; CHO-K1 cells) [nM] |
| --- | --- | --- | --- | --- | --- |
|  | C[C@H](NC[C@H](O)c1cccc2[nH]ncc12)C(C)(C)C [I-6] | 100 to 1000 | 70 to 90 | > 90 | < 10 |
|  | CC1(NC[C@H](O)c2cccc3[nH]cc(F)c23)CCC1 [I-110] | < 10 | > 90 | > 90 | < 10 |
|  | Cc1ccc([C@@H](O)CNC(C)(C)C)c2c(F)n[nH]c12 [I-60] | < 10 | 70 to 90 | 70 to 90 | < 10 |
|  | CC(C)NC[C@H](O)c1ccc(Cl)c2[nH]ncc12 [I-122] | < 10 | 70 to 90 | 70 to 90 | < 10 |
| < 50 | Cc1cc([C@@H](O)CNC(C)(C)C)cc2cccnc12 [I-71] | 100 to 1000 | 50 to 70 |  | 10 to 100 |
|  | CCC(CC)NC[C@H](O)c1cccc2[nH]ncc12 [I-43] | 10 to 100 | > 90 | > 90 | < 10 |
| < 50 | Cc1cnc2ccc([C@@H](O)CNC(C)(C)C)cc2c1 [I-73] | > 1000 | < 50 |  | 100 to 1000 |
| > 90 | CC(C)C(C)(C)NC[C@H](O)c1cccc2[nH]nc(F)c12 [I-25] | < 10 | > 90 |  | < 10 |
| 70 to 90 | O[C@@H](CNC1CCC1)c1ccc(Cl)c2[nH]ncc12 [I-119] | < 10 | 70 to 90 |  | < 10 |
|  | CC(C)(C)NC[C@H](O)c1cc2cccnc2cc1Cl [I-80] | 100 to 1000 | 70 to 90 | < 50 | 10 to 100 |
|  | Cc1c(Cl)[nH]c2cccc([C@@H](O)CNC(C)(C)C)c12 [I-115] | > 1000 | 70 to 90 | 70 to 90 | 100 to 1000 |
|  | CC(C)(C)CNC[C@H](O)c1cc(C#N)cc2[nH]ncc12 [I-69] | > 1000 | 50 to 70 | 70 to 90 | 100 to 1000 |
| > 90 | CC(C)(C)NC[C@H](O)c1cccc2[nH]c(=O)sc12 [I-147] | < 10 | 70 to 90 |  | < 10 |
|  | Cc1ncccc1[C@@H](O)CNC1(C)CC1 [I-188] | 100 to 1000 | > 90 | > 90 | 10 to 100 |
|  | Cc1ncccc1[C@@H](O)CNC(C)C [I-184] | > 1000 | 70 to 90 | 70 to 90 | 100 to 1000 |
|  | O[C@@H](CNC1CCC1)c1cccc2[nH]ncc12 [I-127] | < 10 | > 90 | > 90 | < 10 |
|  | CC1(NC[C@H](O)c2cccc3[nH]cc(F)c23)CC1 [I-107] | < 10 | > 90 | > 90 | < 10 |
|  | C[C@@H](NC[C@H](O)c1cccc2[nH]ncc12)C1CC1 [I-13] | < 10 | > 90 | > 90 | < 10 |
|  | C[C@@H](NC[C@H](O)c1ccc(F)c2[nH]ncc12)C1CC1 [I-10] | < 10 | 70 to 90 | > 90 | < 10 |
|  | Cc1n[nH]c2cccc([C@@H](O)CNC(C)(C)CO)c12 [I-173] | 100 to 1000 | 70 to 90 | 70 to 90 | 100 to 1000 |
| 70 to 90 | Cn1ccc(CNC[C@H](O)c2ccc(F)c3[nH]ncc23)n1 [I-65] | 100 to 1000 | 50 to 70 |  | 100 to 1000 |
| 70 to 90 | O[C@@H](CNC1CC1)c1cccc2[nH]nc(Cl)c12 [I-98] | 10 to 100 | 70 to 90 |  | < 10 |
| < 50 | Cc1cc2ncccc2cc1[C@@H](O)CNC(C)(C)C [I-79] | > 1000 | > 90 |  | 100 to 1000 |
| > 90 | CCC(C)(CC)NC[C@H](O)c1cccc2[nH]ncc12 [I-23] | < 10 | > 90 |  | < 10 |
